Here are results for 17 compounds from patent EP0423373A1, “STYRENE DERIVATIVE AND METHOD OF PRODUCTION THEREOF, POLYSTYRENE DERIVATIVE PRODUCED THEREFROM AND METHOD OF PRODUCING THE SAME, AND ULTRAVIOLET ABSORBENT AND COSMETICS CONTAINING SAID POLYSTYRENE DERIVATIVE AS ACTIVE INGREDIENT” (EARTH CHEMICAL CO., LTD., priority 1989, dated 1990).

Test system in the first series: not listed separately
Put plainly: Ultraviolet absorption spectrum. Format: physicochemical. Conditions: ethanol solution, 10 ppm, quartz cell, optical path 10 mm. The text has this: The wavelength at the maximum absorption (λ max) and the molar extinction coefficient (E) were found by measuring ultraviolet absorption spectrum of an ethanol solution of the sample having a concentration of 10 ppm in a quartz cell having an optical path of 10 mm by means of a spectrophotometer (UV-200S, made by SHIMADZU CORPORATION).
`C=Cc1ccc(C(=O)CC(=O)c2ccc(C(=O)OC)cc2)cc1` [4-methyoxycarbonyl-4'-vinyldibenzoylmethane]: the “Molar extinction coefficient (ε)” value is reported as 33,000 and the “Wavelength at the maximum absorption (λ max)” value (“Wavelength” for short) is on record as 361 nm. For `C=Cc1ccc(CN(N=Cc2ccc(C(=O)O)cc2)C(=S)NC)cc1` [Example 1, p'-carboxybenzaidehyde 4-methyl-2-p-vinylbenzylthiosemicarbazone], the “Molar extinction coefficient (ε)” value is 33,000 and the “Wavelength” value amounted to 331 nm. With `C=Cc1ccc(CNC(=S)N(C)N=Cc2ccc(C(=O)O)cc2)cc1` [Example 2, p'-carboxybenzaldehyde 2-methyl-4-P-vinylbenzylthiosemicarbazone], the “Molar extinction coefficient (ε)” value was 40,000 and the “Wavelength” value stood at 332 nm. With `C=Cc1ccc(CN(N=Cc2ccc(C=CC(=O)O)cc2)C(=S)NC)cc1` [Example 3, p'-carboxyvinylenebenzaldehyde 4-methyl-2-p-vinylbenzylthiosemicarbazone], the “Molar extinction coefficient (ε)” value is recorded as 60,000 and the “Wavelength” value is on record as 348 nm. `C=Cc1ccc(CN(N=Cc2ccc(C(=O)O)cc2)C(N)=O)cc1` [Example 4, p'-carboxybenzaldehyde 2-p-vinylbenzylsemicarbazone]: the “Molar extinction coefficient (ε)” value is 29,000 and the “Wavelength” value was determined as 306 nm. For `C=Cc1ccc(CN(N=Cc2ccc(C(=O)O)cc2)C(=O)NC)cc1` [Example 5, p'-carboxybenzaldehyde 4-methyl-2-p-vinylbenzylsemicarbazone], the “Molar extinction coefficient (ε)” value is recorded as 29,000 and the “Wavelength” value amounted to 310 nm.

`C=Cc1ccc(CN(N=Cc2ccccc2)C(=S)NC)cc1` [Example 6, benzaldehyde 4-methyl-2-p-vinylbenzylthiosemicarbazone]: the “Molar extinction coefficient (ε)” value was 33,000 and the “Wavelength” value is reported as 317 nm.

Regarding `C=Cc1ccc(CN(N=Cc2ccc(C)cc2)C(=S)NC)cc1` [Example 7, p'-methylbenzaldehyde 4-methyl-2-p-vinylbenzylthiosemicarbazone], the “Molar extinction coefficient (ε)” value is 33,000 and the “Wavelength” value was determined as 317 nm. For the compound `C=Cc1ccc(CN(N=Cc2ccc(N(C)C)cc2)C(=S)NC)cc1` [Example 8, p'-dimethylaminobenzaldehyde 4-methyl-2-p-vinylbenzylthiosemicarbazone], the “Molar extinction coefficient (ε)” value is recorded as 38,000 and the “Wavelength” value came to 358 nm. For `C=Cc1ccc(CN(N=Cc2ccc(Cl)cc2)C(=S)NC)cc1` [Example 9, p'-chlorobenzaldehyde 4-methyl-2-p-vinylbenzylthiosemicarbazone], the “Molar extinction coefficient (ε)” value was 41,000 and the “Wavelength” value amounted to 318 nm.

As for `C=Cc1ccc(CN(N=Cc2ccc([N+](=O)[O-])cc2)C(=S)NC)cc1` [Example 10, p'-nitrobenzaldehyde 4-methyl-2-p-vinylbenzylthiosemicarbazone], the “Molar extinction coefficient (ε)” value is on record as 36,000 and the “Wavelength” value came to 359 nm. Regarding `C=Cc1ccc(CN(N=Cc2ccco2)C(=S)NC)cc1` [Example 11, 2'-furylaldehyde 4-methyl-2-p-vinylbenzylthiosemicarbazone], the “Molar extinction coefficient (ε)” value was 34,000 and the “Wavelength” value is given as 321 nm. For `C=Cc1ccc(CN(N=Cc2cccs2)C(=S)NC)cc1` [Example 12, 2'-thienylaldehyde 4-methyl-2-p-vinylbenzylthiosemicarbazone], the “Molar extinction coefficient (ε)” value is 39,000 and the “Wavelength” value came out at 333 nm.

As to `C=Cc1ccc(CN(N=Cc2ccncc2)C(=S)NC)cc1` [Example 13, isonicotinic aldehyde 4-methyl-2-p-vinylbenzylthiosemicarbazone], the “Molar extinction coefficient (ε)” value is reported as 36,000 and the “Wavelength” value turned out to be 325 nm.

Take `C=Cc1ccc(CN(N=CC=Cc2ccccc2)C(=S)NC)cc1` [Example 14, cinnamaldehyde 4-methyl-2-p-vinylbenzylthiosemicarbazone]: the “Molar extinction coefficient (ε)” value was 46,000 and the “Wavelength” value was determined as 335 nm. On to `C=Cc1ccc(C(=O)CC(=O)c2ccc(C(=O)O)cc2)cc1` [Example 57, 4-carboxy-4'-vinyldibenzoylmethane], for which the “Molar extinction coefficient (ε)” value is listed as 34,000 and the “Wavelength” value is reported as 361 nm.

Another series relates to skin of a quinea pig. The experiment in a line: Percutaneous absorption, diffusion cell (Franz). The series is classed as in vitro ADME. Conditions: 1 % aqueous solution of sodium salt, 33 C, 20 hours. As for the experimental part:
The skin of a quinea pig was peeled, washed with physiological saline and then set in a percutaneous absopriton apparatus which was made in accordance with the description in Franz, T. J, J. Invest, Dermotal 64 , 190, 1975, by means of a diffusion cell. The sample room was filled with […] of a 1 % aqueous solution of sodium salt of the obtained polystyrene derivative, and the acceptor was filled with physiological saline. After maintaining at 33 C for 20 hours while stirring with a magnetic stirrier, the physiological saline in the acceptor was taken out, and the ultraviolet absorbency was measured. As the result, when the polystyrene derivative was used, the absorption curve of the ultraviolet absorption spectrum was similar to that obtained when the physiological saline was solely used as a negative control. When a compound having a lower molecular weight (1 % aqueous solution of sodium salt of p-aminobenzoic acid) was used as a positive control, the compound was observed by the ultraviolet absorption spectrum corresponding to 95 ppm in connection.
In the case of `Nc1ccc(C(=O)O)cc1` [p-aminobenzoic acid], the “compound observed in the acceptor by the ultraviolet absorption spectrum” value is recorded as 95 ppm.
